Reference: the NIST ThermoML archive (doi:10.1007/s10765-006-0088-4)

Settings: Liquid; for vapor or sublimation pressure: Closed cell (Static) method

CCC [propane]
Settings	vapor or sublimation pressure [kPa]
280 K	583.1
300 K	999
320 K	1599.8
340 K	2432.2
360 K	3556.3
365 K	3894.1
367 K	4036.8
369 K	4184.4

mass density [kg/m3]
Settings	340 K	360 K	380 K	400 K
3000 kPa, Vibrating tube method	418.08	–	–	–
5000 kPa, Vibrating tube method	433.15	380.52	–	–
10000 kPa, Buoyancy - hydrostatic balance with magnetic suspension - two sinkers	457.22	423.91	383.94	334.82
20000 kPa, Buoyancy - hydrostatic balance with magnetic suspension - one sinker	486.49	463.18	438.11	412.17
30000 kPa, Buoyancy - hydrostatic balance with magnetic suspension - one sinker	506.41	486.97	466.65	446.42
40000 kPa, Bellows volumetry	521.92	504.75	486.9	469.52
50000 kPa, Bellows volumetry	534.58	519.13	502.92	487.17
60000 kPa, Bellows volumetry	545.76	531.24	516.27	501.88
70000 kPa, Bellows volumetry	555.4	541.74	527.68	514.4
80000 kPa, Bellows volumetry	564.13	551.28	537.77	525.29
90000 kPa, Bellows volumetry	571.96	559.54	546.83	534.99
100000 kPa, Bellows volumetry	579.21	567.52	555.08	543.68
120000 kPa, Bellows volumetry	592	581.13	569.69	559.13
140000 kPa, Bellows volumetry	603.23	593.24	582.4	572.43
160000 kPa, Bellows volumetry	613.42	603.94	593.57	584.27
180000 kPa, Bellows volumetry	622.47	613.6	603.76	594.86
200000 kPa, Bellows volumetry	631.34	622.28	612.75	604.47
